The values below come from patent US11813279B2, “Compositions for cancer therapy and methods” (AIM IMMUNOTECH INC., priority 2018, dated 2023).

Assay [1] relates to pancreatic carcinoma. Nature of the assay: Second line therapy following progression on FOLFIRINOX (literature studies). It counts as in vivo, human. The following applies: Overall (mean). An excerpt: Overall Survival (OS) increased from 6.8 months with Gemcitabine to 11.1 months with FOLFIRINOX (p<0.001). However, the Complete Response Rate (CR) was only 0.6%.
In assay [2] the test system is pancreatic carcinoma. The following applies: second line, cited from earlier work.
The subject of assay [3] is locally advanced and metastatic pancreatic carcinoma. The following applies: first line therapy; n = 171 per arm; cited from earlier work.
The subject of another assay is pancreatic tumors. It counts as in vivo, mice. The following applies: n = 8 each. An excerpt: This is highly relevant for improving the likelihood of an antitumor response to checkpoint blockade.
See, FIG. 4, panels labeled “Time-to-tumor progression.”

Assay [4] concerns human renal cell carcinoma xenografts (786-0). The following applies: Hubbell, 1990, cited from earlier work.
In assay [5] the test system is human bladder tumor xenografts. Nature of the assay: Human bladder tumor xenografts in nude mice. Format: in vivo. In general terms: Xenograft models place foreign cells or tissue in a host animal.
For another assay, the system named is B16-F10 melanoma tumors. The following applies: Day 30, n = 10; for Number of Complete Responses (CR): RECIST v1.1.
Assay [6] concerns human renal cell carcinoma xenografts (786-0). Nature of the assay: Human renal cell carcinoma (786-0) xenografts in nude mice. The conditions noted are these: monotherapy. Format: in vivo.

Where two headings read alike, the source gives them in different places. Marks after values point to notes of the source that are not given here.

Procedure for B16-F10 melanoma tumors: Rintatolimod together with anti-PD-L1 antibodies were tested for anti-tumor activity against established subcutaneous B16 melanoma tumors in C57BL/6 mice. Mice (10 animals per group) were inoculated with 0.4×10E6 B16-F10 tumor cells in their shaved rear flanks. Seven days later (when tumors reached 0.3 to 0.5 cm in their largest diameter), mice were randomized for tumor sizes, and individually tagged and were allocated to the following six treatment groups: • No treatment (negative controls) • Rintatolimod alone 100 μg/dose 4× • Rintatolimod alone 250 μg/dose 4× • Anti-PD-L1 mAb alone • Rintatolimod 100 μg/dose 4× plus anti-PD-L1 mAb • Rintatolimod 250 μg/dose 4× plus anti-PD-L1 mAb
Rintatolimod was injected intravenously at 100 or 250 micrograms/dose and was repeated 4 times, 5 days apart. Anti-PD-L1 mAb (clone 10F.9G2, BioXCell) was administered intraperitoneally on Days 1 and 3 after each rintatolimod injection at a 200 microgram/dose. Tumors were measured 3 times per week using a set of calipers, taking measurement of 2 opposing diameters and were recorded as tumor areas.
Results were presented as tumor sizes for individual mice throughout time of therapy, average tumor size in each group and survival up to Day 30 (time to euthanasia).
[sequence] and anti-PD-L1 antibodies were tested for anti-tumor activity against established subcutaneous B16 melanoma tumors in C57BL/6 mice. Briefly, mice (10 animals per group) were inoculated with 0.4×10E6 (i.e., 400,000) B16-F10 tumor cells in their shaved rear flanks. Seven days later, mice were randomized to six treatment groups as follows: (Group 1) No treatment (negative controls); (Group 2) [sequence] alone 100 μg/dose 4λ; (Group 3) [sequence] alone 250 μg/dose 4λ; (Group 4) Anti-PD-L1 mAb alone; (Group 5) [sequence] 100 μg/dose 4× plus anti-PD-L1 mAb; (Group 6) [sequence] 250 μg/dose 4× plus anti-PD-L1 mAb. mAb refers to monoclonal antibody.
[sequence] was injected IV at 100 or 250 μg/dose 4 times, 5 days apart. Anti-PD-L1 mAb was administered IP on Days 1 and 3 after each [sequence] dose at 200 μg/dose. Tumors were measured 3 times per week using calipers, measuring 2 opposing diameters. […] Results were presented as tumor sizes for individual mice throughout time of therapy up to Day 30.

As for `Nc1ccn([C@@H]2O[C@H](CO)[C@@H](O)C2(F)F)c(=O)n1` [Gemcitabine], the “Partial Response Rates (PR) (%)” value was 6.4%* in the assay with pancreatic carcinoma [1] (weighted average) and “(9.4) %” in assay [3]. Moreover, the “Progression Free Survival (PFS) (months)” value was 2.24* months in the assay on pancreatic carcinoma [1] (weighted average); 2.5 months with pancreatic carcinoma [2] (Gilabert, et al. 2017, 72 patients); 2.1 months in the assay with pancreatic carcinoma [2] (Viaud, et al 2017); 2.0 months in the assay on pancreatic carcinoma [2] (da Rocha, et al. 2015); 3.3 months in assay [3]. Further, the “Overall Survival (OS) (months)” value in the assay on pancreatic carcinoma [1] (weighted average based on n in each study) is on record as 4.05* months; with pancreatic carcinoma [2] (Viaud, et al 2017, 96 patients), 3.7 months; in the assay on pancreatic carcinoma [2] (da Rocha, et al. 2015, 20 patients), 5.7 months; in assay [3] it was 6.8 months. In assay [3], the “Complete Response Rates (CR) (%)” value was “(0) %”. For the same compound, the “Complete Response Rates (CR) n” value in assay [3] is 0 n. Moreover, in assay [3], the “Partial Response Rates (PR) n” value was 16 n.

For the compound “polyriboinosinic: polyribocytidylic(12:1)uridylic acid”, in the assay on pancreatic tumors (difference to control (33)), the “Increased Survival Over Control” value worked out at 0 days. Further, the “Time to Progression Median-Days” value in the assay with pancreatic tumors (initial results) was determined as 33 days. Besides, the tumor growth inhibition result in assay [4] (p<0.001) is given as “statistically significant”. Moreover, the survival result in assay [4] (p<0.002) is reported as “statistically significant”. In assay [5], the “growth of human bladder tumor xenografts” value is on record as “significantly inhibited”. Moreover, in the assay with B16-F10 melanoma tumors (rintatolimod 100 μg/dose 4× IV), the “Number of Partial Responses (PR)” value worked out at 0, the “Total # Tumor Responses CR + PR” value was found to be 0 and the “Number of Complete Responses (CR)” value is 0. In addition, in the assay on B16-F10 melanoma tumors (rintatolimod 250 μg/dose 4× IV), the “Number of Partial Responses (PR)” value worked out at 0, the “Total # Tumor Responses CR + PR” value came to 0 and the “Number of Complete Responses (CR)” value is reported as 0. In addition, the tumor regression result in assay [6] is on record as “tumor regression was observed in each mouse”. The “mice free of residual tumor” value in assay [6] (while 100% of the control group had died) is on record as 90%.
